Assay results: patent US20230270712A1, “NOBILETIN COMPOSITIONS AND METHODS FOR THE TREATMENT AND PREVENTION OF COVID-19 AND RELATED PATHOLOGIES” (CAS PROPERTIES, LLC, priority 2020, published 2023)
Read-outs that look alike come from different tables or passages of the source.

Key:
[1] = system: 5′ adenosine monophosphate-activated protein kinase (AMPK); conditions: cited from earlier work
[2] = system: chikungunya (CHIKV); conditions: cited from earlier work
[3] = target: MMP-9 (Homo sapiens, UniProt P14780); conditions: cited from earlier work
[4] = system: platelet aggregation; conditions: cited from earlier work
[5] = system: lung function; assay: lung function in subjects having severe pneumonia; assay type: in vivo; conditions: including from COVID-19
[6] = target: MMP-1 (Homo sapiens, UniProt P03956); conditions: cited from earlier work
[7] = bioavailability and tissue penetration; conditions: in vivo
[8] = system: TIMP-1; conditions: cited from earlier work
[9] = target: COX-2 (Homo sapiens, UniProt P35354); conditions: cited from earlier work
[10] = system: enterovirus 71; conditions: cited from earlier work
[11] = system: induced lung damage; conditions: acute lung injury research model, dose-dependent; cited from earlier work
[12] = system: IL-6; conditions: cited from earlier work
[13] = system: toll-like receptor (TLR) 2+TLR4; conditions: cited from earlier work
[14] = system: hepatitis C virus; conditions: cited from earlier work
[15] = in vivo; cited from earlier work
[16] = system: MCP-1; conditions: cited from earlier work
[17] = system: IL1-α; conditions: cited from earlier work
[18] = system: IL1-β; conditions: cited from earlier work
[19] = target: MMP-2 (Homo sapiens, UniProt P08253); conditions: cited from earlier work
[20] = system: leukocyte infiltration into inflamed tissue; conditions: in vivo; cited from earlier work
[21] = target: MMP-3 (Homo sapiens, UniProt P08254); conditions: cited from earlier work
[22] = system: TNF-α; conditions: cited from earlier work
[23] = system: natural killer (NK) cells; conditions: cited from earlier work
[24] = higher concentration of nobiletin

Sequence of COX-2 (P35354 18-604): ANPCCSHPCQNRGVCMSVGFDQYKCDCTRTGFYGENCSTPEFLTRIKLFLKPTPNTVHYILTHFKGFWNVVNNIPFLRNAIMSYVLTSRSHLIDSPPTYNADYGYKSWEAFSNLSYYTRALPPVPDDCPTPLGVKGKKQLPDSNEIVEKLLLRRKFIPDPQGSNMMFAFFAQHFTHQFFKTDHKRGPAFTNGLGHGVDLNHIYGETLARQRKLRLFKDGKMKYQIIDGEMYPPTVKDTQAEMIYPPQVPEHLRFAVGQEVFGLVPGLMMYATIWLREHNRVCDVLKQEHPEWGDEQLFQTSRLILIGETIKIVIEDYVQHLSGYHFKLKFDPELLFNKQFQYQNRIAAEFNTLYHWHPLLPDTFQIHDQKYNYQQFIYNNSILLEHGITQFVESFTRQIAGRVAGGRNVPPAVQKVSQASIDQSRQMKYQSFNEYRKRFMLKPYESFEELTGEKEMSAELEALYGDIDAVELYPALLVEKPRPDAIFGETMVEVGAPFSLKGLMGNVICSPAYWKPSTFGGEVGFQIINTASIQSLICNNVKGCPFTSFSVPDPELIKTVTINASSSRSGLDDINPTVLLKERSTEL
Sequence of MMP-9 (P14780 94-707, species assumed): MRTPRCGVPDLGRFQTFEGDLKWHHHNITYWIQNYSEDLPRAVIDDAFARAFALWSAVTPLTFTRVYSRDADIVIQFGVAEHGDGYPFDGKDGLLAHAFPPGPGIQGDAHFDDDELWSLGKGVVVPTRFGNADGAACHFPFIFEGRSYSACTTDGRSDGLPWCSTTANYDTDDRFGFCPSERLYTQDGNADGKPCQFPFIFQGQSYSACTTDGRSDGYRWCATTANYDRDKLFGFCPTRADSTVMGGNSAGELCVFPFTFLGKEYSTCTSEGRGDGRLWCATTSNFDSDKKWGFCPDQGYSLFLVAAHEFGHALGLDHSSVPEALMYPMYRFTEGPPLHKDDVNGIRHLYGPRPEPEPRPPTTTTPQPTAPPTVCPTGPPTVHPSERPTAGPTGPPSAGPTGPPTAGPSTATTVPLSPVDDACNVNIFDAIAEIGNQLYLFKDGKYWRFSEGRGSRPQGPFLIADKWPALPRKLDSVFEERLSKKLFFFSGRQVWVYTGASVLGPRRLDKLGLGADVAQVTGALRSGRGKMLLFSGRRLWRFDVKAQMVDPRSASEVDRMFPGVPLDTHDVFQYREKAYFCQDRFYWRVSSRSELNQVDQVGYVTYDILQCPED
Sequence of MMP-3 (P08254 100-477, species assumed): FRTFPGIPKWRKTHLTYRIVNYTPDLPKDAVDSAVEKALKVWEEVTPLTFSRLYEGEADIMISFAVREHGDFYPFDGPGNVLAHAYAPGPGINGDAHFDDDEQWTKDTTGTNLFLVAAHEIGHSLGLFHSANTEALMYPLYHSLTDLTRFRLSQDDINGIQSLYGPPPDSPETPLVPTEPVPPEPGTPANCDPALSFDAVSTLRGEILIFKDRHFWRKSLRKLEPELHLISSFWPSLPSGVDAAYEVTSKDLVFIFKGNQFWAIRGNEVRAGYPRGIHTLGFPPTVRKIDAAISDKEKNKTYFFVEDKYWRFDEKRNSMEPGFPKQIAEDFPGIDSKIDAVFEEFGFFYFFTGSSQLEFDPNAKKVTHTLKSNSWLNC
Sequence of MMP-1 (P03956 100-469, species assumed): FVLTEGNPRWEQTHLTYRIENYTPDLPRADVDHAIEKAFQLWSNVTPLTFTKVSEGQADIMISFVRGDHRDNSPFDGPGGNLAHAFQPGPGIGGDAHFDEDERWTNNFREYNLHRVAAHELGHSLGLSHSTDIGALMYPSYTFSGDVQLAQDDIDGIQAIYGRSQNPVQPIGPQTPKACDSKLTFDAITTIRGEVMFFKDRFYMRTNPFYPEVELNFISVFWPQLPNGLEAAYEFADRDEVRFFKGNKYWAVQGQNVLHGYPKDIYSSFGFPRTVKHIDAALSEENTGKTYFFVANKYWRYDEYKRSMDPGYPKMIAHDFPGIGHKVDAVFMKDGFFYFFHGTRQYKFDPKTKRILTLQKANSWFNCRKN
Sequence of MMP-2 (P08253 110-660, species assumed): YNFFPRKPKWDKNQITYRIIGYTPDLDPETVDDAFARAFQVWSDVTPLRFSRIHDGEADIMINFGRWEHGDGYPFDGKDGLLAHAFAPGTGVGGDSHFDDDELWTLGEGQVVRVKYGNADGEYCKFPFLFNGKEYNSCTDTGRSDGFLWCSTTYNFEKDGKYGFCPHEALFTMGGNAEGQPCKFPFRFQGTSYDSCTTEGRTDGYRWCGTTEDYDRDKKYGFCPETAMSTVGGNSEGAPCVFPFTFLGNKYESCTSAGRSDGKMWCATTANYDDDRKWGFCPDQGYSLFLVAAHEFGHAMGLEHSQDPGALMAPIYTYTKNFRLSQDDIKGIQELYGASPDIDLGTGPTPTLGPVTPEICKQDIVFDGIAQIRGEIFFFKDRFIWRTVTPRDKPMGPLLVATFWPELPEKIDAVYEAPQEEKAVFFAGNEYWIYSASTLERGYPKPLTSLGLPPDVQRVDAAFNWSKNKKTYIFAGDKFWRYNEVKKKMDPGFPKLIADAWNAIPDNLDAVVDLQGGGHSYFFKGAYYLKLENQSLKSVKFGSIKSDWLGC

COc1ccc(-c2cc(=O)c3c(OC)c(OC)c(OC)c(OC)c3o2)cc1OC [nobiletin, 5,6,7,8,3′,4′-hexamethoxyflavone]
AMPK levels and activity [1]: increasing
inhibition of chikungunya (CHIKV) infection ([2]; at viral entry as well as during translation/replication state): inhibit chikungunya (CHIKV) infection
cell survival of virally infected cells [2, 24]: ~90%
increase in survival of virally infected cells [2, 24]: 6 fold
increase in survival of virally infected cells ([2]; lower concentration of nobiletin, cell survival without it <15%): 4 fold
inhibition of MMP-9 [3]: inhibiting
platelet aggregation [4]: suppression of platelet aggregation
lung function [5]: excellent ability to restore lung function
inhibition of MMP-1 [6]: inhibiting
relative bioavailability [7]: high relative bioavailability
tissue penetration [7]: high tissue penetration
effect on TIMP-1 [8]: upregulating
inhibition of COX-2 (and its metabolite PGE2) [9]: inhibiting
anti-viral activity against enterovirus 71 [10]: direct anti-viral activity
induced lung damage [11]: nearly eliminated lung damage
inhibition of IL-6 [12]: significantly inhibiting
inhibition of TLR2+TLR4 [13]: significantly inhibiting
activity against hepatitis C virus [14]: significant activity
anti-obesity effects [15]: weight loss, fat loss
inhibition of MCP-1 [16]: significantly inhibiting
inhibition of IL1-α [17]: significantly inhibiting
inhibition of IL1-β [18]: significantly inhibiting
inhibition of MMP-2 [19]: inhibiting
leukocyte infiltration into inflamed tissue [20]: significantly reduces
inhibition of MMP-3 [21]: inhibiting
inhibition of TNF-α [22]: significantly inhibiting
anti-viral activity of NK cells [23]: potentiating
